Experimental data reported in PubChem BioAssay (NCI).
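Five compound concentrations were applied to cells in 96-well plates for 48 hours; endpoints were derived by simple linear interpolation of the resulting dose-response curve. At the TGI there is no net growth.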

Experiments:
Assay in all cases: NCI anticancer screen, dose series, 48 h
786-0 renal = tested on: 786-0 renal
A498 renal = tested on: A498 renal
A549 NSCLC = tested on: A549 NSCLC
ACHN renal = tested on: ACHN renal
BT-549 breast = tested on: BT-549 breast
CAKI-1 renal = tested on: CAKI-1 renal
CCRF-CEM leukemia = tested on: CCRF-CEM leukemia
COLO 205 colon = tested on: COLO 205 colon
DU-145 prostate = tested on: DU-145 prostate
EKVX NSCLC = tested on: EKVX NSCLC
HCC-2998 colon = tested on: HCC-2998 colon
HCT-116 colon = tested on: HCT-116 colon
HCT-15 colon = tested on: HCT-15 colon
HOP-62 NSCLC = tested on: HOP-62 NSCLC
HOP-92 NSCLC = tested on: HOP-92 NSCLC
HS 578T breast = tested on: HS 578T breast
HT29 colon = tested on: HT29 colon
K-562 leukemia = tested on: K-562 leukemia
KM12 colon = tested on: KM12 colon
LOX IMVI melanoma = tested on: LOX IMVI melanoma
M14 melanoma = tested on: M14 melanoma
MALME-3M melanoma = tested on: MALME-3M melanoma
MCF7 breast = tested on: MCF7 breast
MDA-MB-231 breast = tested on: MDA-MB-231 breast
MDA-MB-435 = tested on: MDA-MB-435
MDA-N = tested on: MDA-N
MOLT-4 leukemia = tested on: MOLT-4 leukemia
NCI-H226 lung = tested on: NCI-H226 lung
NCI-H23 lung = tested on: NCI-H23 lung
NCI-H460 lung = tested on: NCI-H460 lung
NCI-H522 lung = tested on: NCI-H522 lung
NCI/ADR-RES ovarian = tested on: NCI/ADR-RES ovarian
OVCAR-3 ovarian = tested on: OVCAR-3 ovarian
OVCAR-4 ovarian = tested on: OVCAR-4 ovarian
OVCAR-5 ovarian = tested on: OVCAR-5 ovarian
OVCAR-8 ovarian = tested on: OVCAR-8 ovarian
PC-3 prostate = tested on: PC-3 prostate
RPMI-8226 leukemia = tested on: RPMI-8226 leukemia
RXF 393 renal = tested on: RXF 393 renal
SF-268 CNS = tested on: SF-268 CNS
SF-295 CNS = tested on: SF-295 CNS
SF-539 CNS = tested on: SF-539 CNS
SK-MEL-2 melanoma = tested on: SK-MEL-2 melanoma
SK-MEL-28 melanoma = tested on: SK-MEL-28 melanoma
SK-MEL-5 melanoma = tested on: SK-MEL-5 melanoma
SN12C renal = tested on: SN12C renal
SNB-19 CNS = tested on: SNB-19 CNS
SNB-75 CNS = tested on: SNB-75 CNS
SW-620 colon = tested on: SW-620 colon
T-47D breast = tested on: T-47D breast
U251 CNS = tested on: U251 CNS
UACC-257 melanoma = tested on: UACC-257 melanoma
UO-31 renal = tested on: UO-31 renal
HL-60(TB) leukemia = tested on: HL-60(TB) leukemia
IGROV1 ovarian = tested on: IGROV1 ovarian
SK-OV-3 ovarian = tested on: SK-OV-3 ovarian
SR leukemia = tested on: SR leukemia
TK-10 renal = tested on: TK-10 renal

CC(=Nc1ccc(Cl)cc1)c1ccncc1
TGI (786-0 renal): > 100 µM | TGI (A498 renal): > 100 µM | TGI (A549 NSCLC): > 100 µM | TGI (ACHN renal): > 100 µM | TGI (BT-549 breast): > 100 µM | TGI (CAKI-1 renal): > 100 µM | TGI (CCRF-CEM leukemia): > 100 µM | TGI (COLO 205 colon): > 100 µM | TGI (DU-145 prostate): > 100 µM | TGI (EKVX NSCLC): > 100 µM | TGI (HCC-2998 colon): > 100 µM | TGI (HCT-116 colon): > 100 µM | TGI (HCT-15 colon): > 100 µM | TGI (HOP-62 NSCLC): > 100 µM | TGI (HOP-92 NSCLC): > 100 µM | TGI (HS 578T breast): > 100 µM | TGI (HT29 colon): > 100 µM | TGI (K-562 leukemia): > 100 µM | TGI (KM12 colon): > 100 µM | TGI (LOX IMVI melanoma): > 100 µM | TGI (M14 melanoma): > 100 µM | TGI (MALME-3M melanoma): > 100 µM | TGI (MCF7 breast): > 100 µM | TGI (MDA-MB-231 breast): > 100 µM | TGI (MDA-MB-435): > 100 µM | TGI (MDA-N): > 100 µM | TGI (MOLT-4 leukemia): > 100 µM | TGI (NCI-H226 lung): > 100 µM | TGI (NCI-H23 lung): > 100 µM | TGI (NCI-H460 lung): > 100 µM | TGI (NCI-H522 lung): > 100 µM | TGI (NCI/ADR-RES ovarian): > 100 µM | TGI (OVCAR-3 ovarian): > 100 µM | TGI (OVCAR-4 ovarian): > 100 µM | TGI (OVCAR-5 ovarian): > 100 µM | TGI (OVCAR-8 ovarian): > 100 µM | TGI (PC-3 prostate): > 100 µM | TGI (RPMI-8226 leukemia): > 100 µM | TGI (RXF 393 renal): > 100 µM | TGI (SF-268 CNS): > 100 µM | TGI (SF-295 CNS): > 100 µM | TGI (SF-539 CNS): 77.9 µM | TGI (SK-MEL-2 melanoma): > 100 µM | TGI (SK-MEL-28 melanoma): > 100 µM | TGI (SK-MEL-5 melanoma): > 100 µM | TGI (SN12C renal): > 100 µM | TGI (SNB-19 CNS): > 100 µM | TGI (SNB-75 CNS): > 100 µM | TGI (SW-620 colon): > 100 µM | TGI (T-47D breast): > 100 µM | TGI (U251 CNS): > 100 µM | TGI (UACC-257 melanoma): > 100 µM | TGI (UO-31 renal): > 100 µM

CCCCC/C=C\C=C\CCCCCCCCC(=O)OC
TGI (786-0 renal): > 100 µM | TGI (A498 renal): > 100 µM | TGI (A549 NSCLC): > 100 µM | TGI (ACHN renal): > 100 µM | TGI (BT-549 breast): > 100 µM | TGI (CAKI-1 renal): > 100 µM | TGI (COLO 205 colon): > 100 µM | TGI (DU-145 prostate): > 100 µM | TGI (EKVX NSCLC): > 100 µM | TGI (HCT-116 colon): > 100 µM | TGI (HCT-15 colon): > 100 µM | TGI (HL-60(TB) leukemia): > 100 µM | TGI (HOP-62 NSCLC): > 100 µM | TGI (HOP-92 NSCLC): > 100 µM | TGI (HS 578T breast): > 100 µM | TGI (HT29 colon): > 100 µM | TGI (IGROV1 ovarian): > 100 µM | TGI (K-562 leukemia): > 100 µM | TGI (KM12 colon): > 100 µM | TGI (LOX IMVI melanoma): 87.9 µM | TGI (M14 melanoma): > 100 µM | TGI (MALME-3M melanoma): > 100 µM | TGI (MCF7 breast): > 100 µM | TGI (MDA-MB-231 breast): > 100 µM | TGI (MDA-N): > 100 µM | TGI (MOLT-4 leukemia): > 100 µM | TGI (NCI-H226 lung): > 100 µM | TGI (NCI-H23 lung): > 100 µM | TGI (NCI-H460 lung): > 100 µM | TGI (NCI/ADR-RES ovarian): > 100 µM | TGI (OVCAR-3 ovarian): > 100 µM | TGI (OVCAR-4 ovarian): > 100 µM | TGI (OVCAR-5 ovarian): > 100 µM | TGI (OVCAR-8 ovarian): > 100 µM | TGI (PC-3 prostate): > 100 µM | TGI (RPMI-8226 leukemia): > 100 µM | TGI (RXF 393 renal): > 100 µM | TGI (SF-268 CNS): > 100 µM | TGI (SF-295 CNS): > 100 µM | TGI (SF-539 CNS): > 100 µM | TGI (SK-MEL-2 melanoma): > 100 µM | TGI (SK-MEL-28 melanoma): > 100 µM | TGI (SK-MEL-5 melanoma): > 100 µM | TGI (SK-OV-3 ovarian): > 100 µM | TGI (SN12C renal): > 100 µM | TGI (SNB-19 CNS): > 100 µM | TGI (SNB-75 CNS): > 100 µM | TGI (SR leukemia): > 100 µM | TGI (SW-620 colon): > 100 µM | TGI (T-47D breast): > 100 µM | TGI (TK-10 renal): > 100 µM | TGI (U251 CNS): > 100 µM | TGI (UACC-257 melanoma): > 100 µM | TGI (UO-31 renal): 31.3 µM
